System: γH2AX, 53BP1 and pRPA foci in LN229 MGMT+/−, MMR+/− cells
Assay: Immunofluorescence foci assays
Format: cell-based, human
Conditions: 20 μM; for γH2AX, 53BP1 and pRPA foci formation (in words): 2 to 48 h; for DDR foci across cell cycle phases (in words): 48 h, G1, S and G2 phases
Experimental: Immunofluorescence Foci Assays. High-throughput immunofluorescence foci assays were performed at the Yale Center for Molecular Discovery (YCMD). Cells were seeded at 2000 cells/well in black polystyrene flat bottom 384-well plates (Greiner Bio-One) and allowed to adhere overnight. Compound addition was performed utilizing a Labcyte Echo 550 liquid handler (Beckman Coulter), with 6 replicates per test condition and 12 replicates per control condition. Following drug incubation, cells were fixed and stained for phospho-SER139-H2AX (γH2AX), 53BP1, or phospho-SER33-RPA2 (pRPA) as follows.
γH2AX protocol: Cells were fixed with 4% paraformaldehyde in 1×PBS for 15 min, washed twice with 1×PBS, incubated in extraction buffer (0.5% Triton X-100 in 1×PBS) for 10 min, washed twice with 1×PBS, and incubated in blocking buffer (Blocker Casein in PBS, Thermo Scientific+5% goat serum, Life Technologies) for 1 h. Mouse anti-phospho-histone H2A.X (Ser139) antibody (clone JBW301, Millipore, 05-636) was added 1/1000 in blocking buffer at 4° C. overnight. After washing with 1×PBS, cells were incubated with goat anti-mouse IgG (H+L) highly cross-adsorbed secondary antibody, Alexa Fluor 647 (Invitrogen, A-21236) 1/500 and with 1 μg/mL Hoechst nucleic acid dye in blocking buffer for 2 h, and then washed with 1×PBS.
53BP1 protocol: Cells were fixed with 4% paraformaldehyde+0.02% Triton X-100 in 1×PBS for 20 minutes, washed twice with 1×PBS, and incubated in blocking buffer (10% FBS, 0.5% Triton X-100 in 1×PBS) for 1 h. Rabbit anti-53BP1 antibody (Novus Biologicals, NB100-904) was added 1/1000 in blocking buffer at 4° C. overnight. After washing with 1×PBS, cells were incubated with goat anti-rabbit IgG (H+L) highly cross-adsorbed secondary antibody, Alexa Fluor 647 (Invitrogen, A-21245) 1/500 and with 1 μg/mL Hoechst nucleic acid dye in blocking buffer for 2 h, and then washed with 1×PBS.
pRPA protocol: Cells were washed twice with 1×PBS on ice, incubated in extraction buffer (0.5% Triton X-100 in 1×PBS) for 5 min on ice, fixed with 3% paraformaldehyde+2% sucrose in 1×PBS for 15 min at 23° C., incubated again in extraction buffer for 5 min on ice, and incubated in blocking buffer (2% BSA, 10% milk, 0.1% Triton X-100 in 1×PBS) for 1 h at 23° C. Rabbit anti-phospho-RPA2 (S33) antibody (Bethyl Laboratories, A300-246A) was added 1/1000 in blocking buffer at 4° C. overnight. […]
Additional small scale immunofluorescence assays used for extended time course analysis of γH2AX foci were performed in Millicell EZSLIDE 8-well chamber slides (Millipore). […] Imaging was performed on a Keyence BZ-X800 fluorescence microscope at 40× magnification. […]

NC(=O)c1ncn2c(=O)n(CCF)nnc12 [KL-50, 3-(2-fluoroethyl)-4-oxo-3H,4H-imidazo[4,3-d][1,2,3,5]tetrazine-8-carboxamide]
γH2AX, 53BP1 and pRPA foci formation (in words): maximal foci response at 48 h, specifically in MGMT− cells and irrespective of MMR status | DDR foci across cell cycle phases (in words): foci formation primarily in the S- and G2-phases of the cell cycle

Cn1nnc2c(C(N)=O)ncn2c1=O [TMZ, temozolomide, reference compound]
γH2AX, 53BP1 and pRPA foci formation (in words): comparable response in MGMT− cells, but this was abolished in the absence of functional MMR | DDR foci across cell cycle phases (in words): did not observe foci induction or micronuclei formation in MGMT−/MMR− cells

Source: patent publication US20240400572A1, “COMPOUNDS AND METHODS FOR TREATING CANCERS THAT ARE MGMT DEFICIENT REGARDLESS OF MMR STATUS” (Yale University, priority 2021, published 2024)
